System: 699152-130-R-J1-PDC complex spheroid growth
Test: Anticancer human tumor 699152-130-R-J1-PDC patient-derived pancreatic carcinoma cell line growth inhibition [AhR]
Details: for IC50: curve of first compound; for viability, T/C: stronger effect = lower value; active = viability on the fitted dose curve at most 10% of control; inactive = the rest
Summary of the method: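 Agents were dosed in half-log steps down from roughly clinical Cmax, or from 10 microM where Cmax was unknown, alone and with AhR antagonists. Read-out: percent test/control growth of tumor spheroids containing HUVEC and MSC stromal cells.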

[1] = second compound 0.1 µM, first compound 0.0316 µM
[2] = second compound 0.1 µM, first compound 0.1 µM
[3] = second compound 0.1 µM, first compound 0.316 µM
[4] = second compound 0.1 µM, first compound 1 µM
[5] = second compound 0.316 µM, first compound 0.0316 µM
[6] = second compound 0.316 µM, first compound 0.1 µM
[7] = second compound 0.316 µM, first compound 0.316 µM
[8] = second compound 0.316 µM, first compound 1 µM
[9] = second compound 1 µM, first compound 0.0316 µM
[10] = second compound 1 µM, first compound 0.1 µM
[11] = second compound 1 µM, first compound 0.316 µM
[12] = second compound 1 µM, first compound 1 µM
[13] = second compound 3.16 µM, first compound 0.0316 µM
[14] = second compound 3.16 µM, first compound 0.1 µM
[15] = second compound 3.16 µM, first compound 0.316 µM
[16] = second compound 3.16 µM, first compound 1 µM
[17] = second compound 10 µM, first compound 0.0316 µM
[18] = second compound 10 µM, first compound 0.1 µM
[19] = second compound 10 µM, first compound 0.316 µM
[20] = second compound 10 µM, first compound 1 µM
[21] = second compound 0.1 µM, first compound 3.16 µM
[22] = second compound 0.1 µM, first compound 10 µM
[23] = second compound 0.316 µM, first compound 3.16 µM
[24] = second compound 0.316 µM, first compound 10 µM
[25] = second compound 1 µM, first compound 3.16 µM
[26] = second compound 1 µM, first compound 10 µM
[27] = second compound 3.16 µM, first compound 3.16 µM
[28] = second compound 3.16 µM, first compound 10 µM
[29] = second compound 10 µM, first compound 3.16 µM
[30] = second compound 10 µM, first compound 10 µM
[31] = second compound 0.1 µM, first compound 0.00949 µM
[32] = second compound 0.1 µM, first compound 0.03 µM
[33] = second compound 0.1 µM, first compound 0.0949 µM
[34] = second compound 0.1 µM, first compound 0.3 µM
[35] = second compound 0.316 µM, first compound 0.00949 µM
[36] = second compound 0.316 µM, first compound 0.03 µM
[37] = second compound 0.316 µM, first compound 0.0949 µM
[38] = second compound 0.316 µM, first compound 0.3 µM
[39] = second compound 1 µM, first compound 0.00949 µM
[40] = second compound 1 µM, first compound 0.03 µM
[41] = second compound 1 µM, first compound 0.0949 µM
[42] = second compound 1 µM, first compound 0.3 µM
[43] = second compound 3.16 µM, first compound 0.00949 µM
[44] = second compound 3.16 µM, first compound 0.03 µM
[45] = second compound 3.16 µM, first compound 0.0949 µM
[46] = second compound 3.16 µM, first compound 0.3 µM
[47] = second compound 10 µM, first compound 0.00949 µM
[48] = second compound 10 µM, first compound 0.03 µM
[49] = second compound 10 µM, first compound 0.0949 µM
[50] = second compound 10 µM, first compound 0.3 µM
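Also: compound exposure lasted 7 days after spheroids had grown for 3 days.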

CC1COCCN1c1cc(-c2ccnn2C)c2ccnc(-c3ccn[nH]3)c2n1 (stereo not given) + Cc1cncc(-c2nc(NCCc3c[nH]c4ccccc34)c3ncn(C(C)C)c3n2)c1
< 0.00316 µM: IC50 (second compound 10 µM)
inactive: viability, T/C (second compound 0.1 µM, first compound 0.00316 µM) 109% | viability, T/C (second compound 0.1 µM, first compound 0.01 µM) 94.4% | viability, T/C [1] 107% | viability, T/C [2] 96.5% | viability, T/C [3] 75.7% | viability, T/C [4] 64.4% | viability, T/C (second compound 0.316 µM, first compound 0.00316 µM) 119% | viability, T/C (second compound 0.316 µM, first compound 0.01 µM) 122% | viability, T/C [5] 103% | viability, T/C [6] 88.3% | viability, T/C [7] 81.6% | viability, T/C [8] 62% | viability, T/C (second compound 1 µM, first compound 0.00316 µM) 127% | viability, T/C (second compound 1 µM, first compound 0.01 µM) 128% | viability, T/C [9] 135% | viability, T/C [10] 105% | viability, T/C [11] 79.9% | viability, T/C [12] 64.9% | viability, T/C (second compound 3.16 µM, first compound 0.00316 µM) 77.6% | viability, T/C (second compound 3.16 µM, first compound 0.01 µM) 64.1% | viability, T/C [13] 67.2% | viability, T/C [14] 57.4% | viability, T/C [15] 52.5% | viability, T/C [16] 46%
> 1 µM: IC50 (second compound 0.1 µM) | IC50 (second compound 0.316 µM) | IC50 (second compound 1 µM)
0.489 µM: IC50 (second compound 3.16 µM)
active: viability, T/C (second compound 10 µM, first compound 0.00316 µM) 5.06% | viability, T/C (second compound 10 µM, first compound 0.01 µM) 5.37% | viability, T/C [17] 5.23% | viability, T/C [18] 5.76% | viability, T/C [19] 7.12% | viability, T/C [20] 9.33%

CC1COCCN1c1cc(C2(S(C)(=N)=O)CC2)nc(-c2ccnc3[nH]ccc23)n1 (stereo not given) + Cc1cncc(-c2nc(NCCc3c[nH]c4ccccc34)c3ncn(C(C)C)c3n2)c1
inactive: viability, T/C [1] 98.9% | viability, T/C [2] 103% | viability, T/C [3] 113% | viability, T/C [4] 95.9% | viability, T/C [21] 85.3% | viability, T/C [22] 74.8% | viability, T/C [5] 96.5% | viability, T/C [6] 106% | viability, T/C [7] 114% | viability, T/C [8] 119% | viability, T/C [23] 95.1% | viability, T/C [24] 77.8% | viability, T/C [9] 117% | viability, T/C [10] 122% | viability, T/C [11] 126% | viability, T/C [12] 107% | viability, T/C [25] 123% | viability, T/C [26] 81.3% | viability, T/C [13] 90.6% | viability, T/C [14] 113% | viability, T/C [15] 90.9% | viability, T/C [16] 101% | viability, T/C [27] 92.3% | viability, T/C [28] 69.9% | viability, T/C [17] 25.2% | viability, T/C [18] 27.3% | viability, T/C [19] 29.9% | viability, T/C [20] 24.7% | viability, T/C [29] 25.9% | viability, T/C [30] 20.2%
< 0.0316 µM: IC50 (second compound 10 µM)
> 10 µM: IC50 (second compound 0.1 µM) | IC50 (second compound 0.316 µM) | IC50 (second compound 1 µM) | IC50 (second compound 3.16 µM)

COc1ccc([C@@H](O)c2cc(-c3ncnc4cc(N5CCOCC5)ccc34)c(F)cc2Cl)nn1 + Cc1cncc(-c2nc(NCCc3c[nH]c4ccccc34)c3ncn(C(C)C)c3n2)c1
inactive: viability, T/C [1] 100% | viability, T/C [2] 104% | viability, T/C [3] 89.4% | viability, T/C [4] 78.9% | viability, T/C [21] 65.4% | viability, T/C [22] 40.1% | viability, T/C [5] 95% | viability, T/C [6] 102% | viability, T/C [7] 89.2% | viability, T/C [8] 84.4% | viability, T/C [23] 59.7% | viability, T/C [24] 36.8% | viability, T/C [9] 104% | viability, T/C [10] 103% | viability, T/C [11] 109% | viability, T/C [12] 91% | viability, T/C [25] 76.2% | viability, T/C [26] 41.2% | viability, T/C [13] 55.6% | viability, T/C [14] 66% | viability, T/C [15] 60.6% | viability, T/C [16] 59.8% | viability, T/C [27] 54.3% | viability, T/C [28] 40.2%
< 0.0316 µM: IC50 (second compound 10 µM)
7.45 µM: IC50 (second compound 1 µM)
6.29 µM: IC50 (second compound 0.1 µM)
active: viability, T/C [17] 4.98% | viability, T/C [18] 5.41% | viability, T/C [19] 4.5% | viability, T/C [20] 6.28% | viability, T/C [29] 6.8% | viability, T/C [30] 9.11%
5.2 µM: IC50 (second compound 0.316 µM)
4.64 µM: IC50 (second compound 3.16 µM)

Nc1ncn(C2CC(O)C(CO)S2)c(=O)n1 (stereo not given) + Cc1cncc(-c2nc(NCCc3c[nH]c4ccccc34)c3ncn(C(C)C)c3n2)c1
inactive: viability, T/C (second compound 0.1 µM, first compound 0.000949 µM) 105% | viability, T/C (second compound 0.1 µM, first compound 0.003 µM) 93.8% | viability, T/C [31] 99.9% | viability, T/C [32] 99.5% | viability, T/C [33] 90.8% | viability, T/C [34] 91.4% | viability, T/C (second compound 0.316 µM, first compound 0.000949 µM) 112% | viability, T/C (second compound 0.316 µM, first compound 0.003 µM) 95.9% | viability, T/C [35] 97% | viability, T/C [36] 103% | viability, T/C [37] 101% | viability, T/C [38] 107% | viability, T/C (second compound 1 µM, first compound 0.000949 µM) 126% | viability, T/C (second compound 1 µM, first compound 0.003 µM) 110% | viability, T/C [39] 106% | viability, T/C [40] 110% | viability, T/C [41] 113% | viability, T/C [42] 111% | viability, T/C (second compound 3.16 µM, first compound 0.000949 µM) 91.6% | viability, T/C (second compound 3.16 µM, first compound 0.003 µM) 88.8% | viability, T/C [43] 95.1% | viability, T/C [44] 94.6% | viability, T/C [45] 107% | viability, T/C [46] 104% | viability, T/C (second compound 10 µM, first compound 0.000949 µM) 23.9% | viability, T/C (second compound 10 µM, first compound 0.003 µM) 21% | viability, T/C [47] 22.8% | viability, T/C [48] 22.5% | viability, T/C [49] 19.6% | viability, T/C [50] 20.4%
> 0.3 µM: IC50 (second compound 0.1 µM) | IC50 (second compound 0.316 µM) | IC50 (second compound 1 µM) | IC50 (second compound 3.16 µM)
< 0.000949 µM: IC50 (second compound 10 µM)

O=C(C=Cn1cnc(-c2cc(C(F)(F)F)cc(C(F)(F)F)c2)n1)NNc1cnccn1 + Cc1cncc(-c2nc(NCCc3c[nH]c4ccccc34)c3ncn(C(C)C)c3n2)c1
< 0.00949 µM: IC50 (second compound 10 µM)
inactive: viability, T/C [31] 97.5% | viability, T/C [32] 97.4% | viability, T/C [33] 86.4% | viability, T/C [34] 81.4% | viability, T/C (second compound 0.1 µM, first compound 0.949 µM) 69.4% | viability, T/C (second compound 0.1 µM, first compound 3 µM) 67.8% | viability, T/C [35] 83.2% | viability, T/C [36] 92% | viability, T/C [37] 89.2% | viability, T/C [38] 76.3% | viability, T/C (second compound 0.316 µM, first compound 0.949 µM) 76.8% | viability, T/C (second compound 0.316 µM, first compound 3 µM) 74.2% | viability, T/C [39] 102% | viability, T/C [40] 111% | viability, T/C [41] 92.9% | viability, T/C [42] 87.1% | viability, T/C (second compound 1 µM, first compound 0.949 µM) 79.7% | viability, T/C (second compound 1 µM, first compound 3 µM) 72.2% | viability, T/C [43] 118% | viability, T/C [44] 113% | viability, T/C [45] 93.9% | viability, T/C [46] 97.2% | viability, T/C (second compound 3.16 µM, first compound 0.949 µM) 76.2% | viability, T/C (second compound 3.16 µM, first compound 3 µM) 70.5% | viability, T/C [47] 20.1% | viability, T/C [48] 22.6% | viability, T/C [49] 25.2% | viability, T/C [50] 26.4% | viability, T/C (second compound 10 µM, first compound 0.949 µM) 35% | viability, T/C (second compound 10 µM, first compound 3 µM) 32.9%
> 3 µM: IC50 (second compound 0.1 µM) | IC50 (second compound 0.316 µM) | IC50 (second compound 1 µM) | IC50 (second compound 3.16 µM)

Source: PubChem BioAssay AID1919001 (Molecular Pharmacology Branch, DTP, NCI, 2023)
